Data set [1] can be described thus: Alpha half life in Balb/C mouse at 0.5 mg/kg, iv and 2 mg/kg, ip. It is filed as ADME, organism-based. As to conditions: in vivo; call rule not given here.
The next data set deals with DU-145. As to the kind of experiment: Antiproliferative activity against human DU145 cells. It is filed as functional.
The test system of another data set is CWR22R. The experiment in a line: Antiproliferative activity against human CWR22Rv1 cells. In kind it is functional. To be noted: 22Rv1.
The subject of a further data set is PC-3. As to the kind of experiment: Antiproliferative activity against human PC3 cells. In kind it is functional.
Data set [2] is described as follows: Cmax in Balb/C mouse at 0.5 mg/kg, iv and 2 mg/kg, ip. In kind it is ADME, organism-based. To be noted: in vivo.
For a further data set, the system named is DLD-1. As to the kind of experiment: Antiproliferative activity against human DLD1 cells. In kind it is functional.
Another data set has as its system A-375. As to the kind of experiment: Antiproliferative activity against human A375 cells. It is filed as functional.
A further data set has as its system NCI-H1299. As to the kind of experiment: Antiproliferative activity against human H1299 cells. It is filed as functional.
The subject of a further data set is HT-29. As to the kind of experiment: Antiproliferative activity against human HT29 cells. In kind it is functional.
The next data set concerns HeLa. As to the kind of experiment: Antiproliferative activity against human HeLa-S3 cells. In kind it is functional.
The nature of data set [3]: Bioavailability in Balb/C mouse at 0.5 mg/kg, iv and 2 mg/kg, ip. In kind it is ADME, organism-based. As to conditions: in vivo.
In another data set the test system is NALM-6. The experiment in a line: Antiproliferative activity against human Nalm6 cells. It is filed as functional.
Another data set concerns BXPC-3. The experiment in a line: Antiproliferative activity against human BxPC3 cells. In kind it is functional.
Data set [4] is described as follows: Beta half life in Balb/C mouse at 0.5 mg/kg, iv and 2 mg/kg, ip. In kind it is ADME, organism-based. To be noted: in vivo, read-out: beta t1/2.
A short description of data set [5]: AUC in Balb/C mouse at 0.5 mg/kg, iv and 2 mg/kg, ip. In kind it is ADME, organism-based. To be noted: plasma.
The subject of a further data set is MDA-MB-231. As to the kind of experiment: Antiproliferative activity against human […] cells. It is filed as functional.
Another data set has as its system A549. The experiment in a line: Antiproliferative activity against human A549 cells. It is filed as functional.
For another data set, the system named is HT-1080. As to the kind of experiment: Antiproliferative activity against human HT1080 cells. In kind it is functional.
Data set [6] concerns HCT-116. As to the kind of experiment: Antiproliferative activity against human HCT116 cells. In kind it is functional.
In another data set the test system is P12-Ichikawa. The experiment in a line: Antiproliferative activity against human P12 cells. In kind it is functional.
Data set [7] in a line: Clearance in Balb/C mouse at 0.5 mg/kg, iv and 2 mg/kg, ip. In kind it is ADME, organism-based. To be noted: in vivo.
In data set [8] the test system is HCT-116. As to the kind of experiment: Antitumor activity against human HCT116 cells transplanted in mouse at 2.5 mg/kg, ip. It is filed as functional. As to conditions: HCT-116, ip, route intraperitoneal, read-out: TGI.
For data set [9], the system named is Mus musculus. The experiment in a line: Toxicity in mouse at 2.5 mg/kg, ip assessed as loss of body weight. It is filed as organism-based. Also on record: dose 2.5 mg/kg, route intraperitoneal. As to conditions: in vivo.
Data set [10] concerns Mus musculus. The experiment in a line: Toxicity in mouse at 1.25 mg/kg, ip assessed as loss of body weight. Also on record: dose 1.25 mg/kg, route intraperitoneal. In kind it is organism-based. To be noted: in vivo.
Data set [11] concerns HCT-116. The experiment in a line: Antitumor activity against human HCT116 cells transplanted in mouse at 1.25 mg/kg, ip. It is filed as functional. As to conditions: HCT-116, ip, route intraperitoneal, read-out: TGI.

Consider `COc1c(C)c(OC)c2c(c1O)[C@@H]1[C@@H]3Cc4c(OC)c(C)c(OC)c(O)c4[C@H](CNC(=O)c4ccc5ccccc5n4)N3[C@@H](C#N)[C@H](C2)N1C`, for which the half-life in data set [1] amounted to 3.5 min; in data set [4], 17 min. In addition, the GI50 in the data set with DU-145 is 6.9 nM; in the data set with CWR22R it was 1.1 nM; in the data set with PC-3, 6.2 nM; in the data set with DLD-1, 8.1 nM; in the data set with A-375, 1.3 nM; in the data set on NCI-H1299, 6.2 nM. Also, the GI50 with HT-29 turned out to be 7.5 nM; with HeLa, 6.6 nM; in the data set on NALM-6, 0.6 nM; with BXPC-3, 5.8 nM; in the data set with MDA-MB-231, 4.5 nM; in the data set on A549, 10.7 nM. Moreover, the concentration for 50% growth inhibition (GI50) worked out at 5 nM in the data set on HT-1080, 5.8 nM with HCT-116 [6] and 1.9 nM in the data set on P12-Ichikawa. The concentration in data set [2] peaked (Cmax) at 1100 nM. Moreover, in data set [3], the bioavailability was determined as 46%. The same molecule had an area under the curve (AUC) in data set [5] of 0.167 µM·h. Besides, the clearance in data set [7] was 72 mL/min/kg.
Take `COc1c(C)c(OC)c2c(c1O)[C@@H]1[C@@H]3Cc4c(OC)c(C)c(OC)c(O)c4[C@H](CNC(=O)c4cc5cc(OC6CCOCC6)ccc5o4)N3C[C@H](C2)N1C`: the concentration for 50% growth inhibition (GI50) in the data set with HCT-116 [6] was more than 300 nM.
In turn, `COc1c(C)c(OC)c2c(c1O)[C@@H]1[C@@H]3Cc4c(OC)c(C)c(OC)c(O)c4[C@H](CNC(=O)c4ccc(CNS(=O)(=O)c5cccc6c(N(C)C)cccc56)cc4)N3[C@@H](C#N)[C@H](C2)N1C` yielded a GI50 in the data set on HCT-116 [6] of 201 nM.
In the case of `COc1c(C)c(OC)c2c(c1O)[C@@H]1[C@@H]3Cc4c(OC)c(C)c(OC)c(O)c4[C@H](CNC(=O)c4cc5cc(OC6CCOCC6)ccc5o4)N3[C@@H](C#N)[C@H](C2)N1C`, the half-life in [1] was found to be 3 min; in data set [4] it was 25 min. In addition, in the data set with HCT-116 [8], the inhibition in vivo at 2.5 mg/kg came out at 96%. Moreover, the GI50 with PC-3 came to 2.7 nM; in the data set on DLD-1, 8.3 nM; in the data set on A549, 18.9 nM; with HCT-116 [6] it was 3.2 nM. For the same molecule, the Cmax in [2] was 3700 nM. Further, the result with Mus musculus [9] and in the data set on Mus musculus [10] was Active. In addition, the bioavailability in data set [3] is 38%. In addition, the area under the curve (AUC) in [5] is 0.483 µM·h. The inhibition in vivo at 1.25 mg/kg in the data set on HCT-116 [11] amounted to 68%. Further, in data set [7], the clearance turned out to be 45 mL/min/kg.
In the data set on HCT-116 [6], `COc1c(C)c(OC)c2c(c1O)[C@@H]1[C@@H]3Cc4c(OC)c(C)c(OC)c(O)c4[C@H](CNC(=O)c4cc5ccccc5o4)N3[C@@H](C#N)[C@H](C2)N1C` came in with a GI50 of 5.5 nM.
As to `COC1=C(C)C(=O)C2=C(C1=O)[C@@H]1[C@@H]3CC4=C(C(=O)C(OC)=C(C)C4=O)[C@H](CNC(=O)c4cc5cc(OC6CCOCC6)ccc5o4)N3[C@@H](C#N)[C@H](C2)N1C`, the GI50 turned out to be 16.5 nM in the data set on PC-3, 26.5 nM in the data set with DLD-1 and 17.3 nM with HCT-116 [6].
For `COc1c(C)c(OC)c2c(c1O)[C@@H]1[C@@H]3Cc4c(OC)c(C)c(OC)c(O)c4[C@H](CNC(=O)c4cc5cc(OCCN6CCOCC6)ccc5o4)N3[C@@H](C#N)[C@H](C2)N1C`, the concentration for 50% growth inhibition (GI50) worked out at 11.7 nM in the data set with PC-3, 22.4 nM with DLD-1, 57.5 nM with A549 and 8.1 nM with HCT-116 [6].
Consider `COc1c(C)c(OC)c2c(c1O)[C@@H]1[C@@H]3Cc4c(OC)c(C)c(OC)c(O)c4[C@H](CNC(=O)c4cc5cc(OC6CCOCC6)ccc5o4)N3[C@@H](O)[C@H](C2)N1C`, for which the GI50 in the data set on PC-3 turned out to be 5 nM; with DLD-1, 10.4 nM; in the data set on A549 it was 20.6 nM; in the data set with HCT-116 [6], 5.5 nM.
